Here are results for 6 compounds from patent publication US11590202B2, “Inhibitors of LTβR-NFκB signaling pathways for treating inflammation and cancer” (University of Maryland, Baltimore, priority 2017, dated 2023).

No end group written: not given here.

What all share (type): cell-based, mouse
The test system of data set [1] is classical NFκB signaling in LEC. Nature of the data set: Immunoblot of classical NFκB signaling (IKKα/β phosphorylation, IκBα degradation). As to conditions: 2 μg/mL anti-LTβR mAb or 20 ng/mL TNFα. Here is the method:
(§1) LECs were lysed in buffer containing 20 mM HEPES (pH 7.4), 150 mM NaCl, 10 mM NaF, 2 mM Na3VO4, 1 mM EDTA, 1 mM EGTA, 0.5% Triton X-100, 0.1 mM DTT, 1 mM PMSF and protease inhibitor cocktail (Roche, Indianapolis, Ind.). Protein in the cell extract was quantified using protein quantification kit (Bio-Rad, Philadelphia, Pa.) and 10 μg total protein was run on Novex™ WedgeWell™ 4-20% Tris-Glycine Mini Gels (Invitrogen) and transferred to an Immobilon-P membrane (Bio-Rad). Membranes were probed with anti-NF-κB2 p100/p52, NIK, phospho-IKKα/β(Ser176/180) (16A6), IκBα, TRAF2, TRAF3, and GAPDH antibodies. For co-IP assays, 500 μg total protein of cell extract was incubated with 1 μg of anti-mLTβR (5G11b) overnight, followed by 4 hour incubation with 25 μL protein G Agarose beads (Sigma-Aldrich). The beads were then washed with lysis buffer and boiled in 2× Laemmli sample buffer (Bio-Rad).
(In general: In western blotting, separated proteins are transferred to a membrane and probed.)

The subject of data set [2] is LEC. Nature of the data set: MTT viability assay. Particulars: 20 μM peptides, without or with anti-LTβR mAb. Here is the method: LECs were plated into 24-well tissue culture plates, incubated overnight, and treated with 20 μM peptides with or without agonist anti-LTβR (2 μg/mL) for 4 hours, followed by 3 hour incubation with 0.5 mg/mL MTT (3-(4, 5-Dimethylthiazol-2-yl)-2, 5 diphenyl tetrazolium bromide) (Sigma-Aldrich). 50 μL DMSO was added to cells before reading OD at 540 nm.
On the technique in general: Tetrazolium dyes change colour on reduction, which living cells bring about.

For data set [3], the system named is LTβR-mediated non-classical NFκB (NIK) signaling in LEC and SVEC4-10. Nature of the data set: Immunoblot of non-classical NFκB (NIK) signaling after LTβR activation. Here is the method: as §1
For data set [4], the system named is LTβR-NIK signaling in LEC and SVEC4-10. As to the kind of experiment: Immunohistochemistry of LTβR, NIK and RelB in LEC and SVEC4-10. As to conditions: anti-LTβR for 6 hours. Here is the method: (§2) LEC monolayers were stained for surface VCAM-1, LTβR or Lyve-1 with rat anti-mouse VCAM-1 (Clone 429, eBioscience), rat anti-mouse LTβR (Clone 3C8, eBioscience) or rabbit anti-mouse Lyve-1 (70R-LR003, Fitzgerald, Acton, Mass.), then were fixed for 20 minutes at 4° C. with 4% (w/v) paraformaldehyde (Affymetrix), permeabilized with PBS 0.2% (v/v) Triton X-100 (Sigma-Aldrich), and treated with 2% donkey serum for 10 minutes then incubated with rabbit anti-mouse CXCL12 (eBioscience), goat-anti-mouse CCL21 (Clone AF457, R&D System), or anti-NIK mouse monoclonal antibody (Clone A-12, Santa Cruz Biotechnology) overnight at 4° C. The primary antibodies were detected with Alexa Fluor […], 647 (Cy5), or 546 (Cy3)-conjugated donkey anti-goat, donkey anti-rabbit, or donkey anti-rat secondary antibodies (Jackson ImmunoResearch, West Grove, Pa.) for 1 hour at 4° C. Transwell membranes were transferred onto glass slides and visualized by fluorescent microscopy (Zeiss LSM 510 Meta, and LSMS Duo) with a ×60 or ×20 objective. Images were analyzed with Volocity version 6.3 software.

Data set [5] deals with LTβR-induced chemokines and cell adhesion molecules in LEC and SVEC4-10. Nature of the data set: LTβR-induced chemokine and adhesion molecule expression (qRT-PCR, ELISA, flow cytometry, immunohistochemistry). Particulars: LEC or SVEC4-10, anti-LTβR mAb (plus CL), peptides 20 μM; for LTβR-induced CCL2 expression/production: NIKi 50 μM, BAY11 25 μM. Here is the method: LECs in PBS containing 0.2 mM calcium, 0.1 mM magnesium and 0.5% w/v BSA were treated with anti-CD16/32 (clone 93, eBioscience) to block Fc receptors, and then stained with antibodies to cell surface molecules in the same buffer. Flow cytometry antibodies used were: APC-eflour780-anti-mouse CD4 (GK1.5, eBioscience); PE-anti-mouse CD25 (PC61.5, eBioscience); APC-anti-mouse VCAM-1 (clone 647, eBioscience). For detection of LTα2β1, T cells were incubated with MOPC21 or LTβRIg at 2 μg/mL for 60 minutes at 37° C. in HBSS with 2% FBS. Cells were washed, and then stained for 45 minutes at 4° C. with BV421-rat anti-mouse IgG1 along with antibodies to other cell surface markers. Cells were then washed and fixed with 4% paraformaldehyde and run on an LSR Fortessa flow cytometer (BD Biosciences, San Jose, Calif.). Results were analyzed with software FlowJo 8.7 (Treestar).
(§3) One μg of total RNA extracted using Trizol reagent (Invitrogen) was reverse-transcribed into cDNA with GoScript™ Reverse Transcription System (Promega, Fitchburg, Wis.). mRNA expression levels were quantified by real-time PCR using SYBR Green Master Mix with an ABI Prism 7900HT (Applied Biosystems, Foster City, Calif.). Values for specific gene expression were normalized to house-keeping HPRT gene expression and were calculated as: 2^(Ct of HPRT-Ct specific gene). For the microarrays, total RNA of treated mLECs was extracted with RNeasy mini kit (Qiagen, Germantown, Md.) and analyzed for purity and integrity by capillary electrophoresis on an Agilent Bioanalyzer 2100 (Agilent Technologies, Inc. Santa Clara, Calif.). 100 ng/sample was subjected to amplification, followed by labeling and hybridization to Mouse Genome 430 2.0 GeneChips (Affymetrix, Santa Clara, Calif.). Sample amplification, labeling, hybridization, and detection were performed according to the manufacturer's protocols.
5×10^5 LECs or SVEC4-10 cells were plated in 12-well plates and treated with 20 μM peptides for 30 minutes at 37° C. Cells were then washed and incubated with anti-LTβR agonistic mAb (2 μg/mL) for 30 minutes at 4° C., followed by washing and then cross-linking with anti-rat IgG (2 μg/mL) for 6 or 16 hours at 37° C. The supernatants were collected and stored in −80° C. Mouse CCL2 and CCL21 were measured with ELISA kits from Biolegend, Inc. and R&D Systems (Minneapolis, Minn.), respectively.
as §2
For orientation: Quantitative PCR measures a nucleic acid by following its amplification.

Data set [6] has as its system LTβR complex (TRAF2, TRAF3). As to the kind of experiment: Co-immunoprecipitation of LTβR complex with anti-LTβR. Particulars: LEC pretreated, then anti-LTβR mAb for 10 minutes. Here is the method:
as §1

Data set [7] deals with TNFR1-mediated VCAM-1 expression in LEC. Nature of the data set: TNFα-stimulated VCAM-1 expression in LEC (qRT-PCR). As to conditions: LEC stimulated with TNFα for 1 hour. Here is the method:
as §3

[8] abbreviates: pretreated with peptides or inhibitors, then anti-LTβR for 6 hours.

With TNFα, the “early classical NFκB activation (IKKα/β phosphorylation, IκBα degradation)” value in data set [1] is “induced strong IKKα/β phosphorylation and IκBα degradation”.

Consider RQIKIWFQNRRMKWKKPEEGAPGP [ciLT], for which, in data set [2], the “LEC viability (MTT)” value was “did not affect”.

RQIKIWFQNRRMKWKKTGNIYIYNGPVL [nciLT]: the “LEC viability (MTT)” value in data set [2] was “did not affect”.

On to `CN[C@@H](C)C(=O)N[C@H]1CN(C(=O)CC(C)C)CC[C@H]2CC[C@@H](C(=O)NC(c3ccccc3)c3ccccc3)N2C1=O` [AT406], for which the “LTβR-mediated NIK accumulation and p100 processing” value in data set [3] (LEC and SVEC4-10, anti-LTβR mAb, 25 μM AT406) was “promoted more LTβR-mediated NIK accumulation and p100 processing”.

Consider `CC(C)(C)c1ccc(S(=O)(=O)/C=C/C#N)cc1` [BAY11-7085], for which the “NIK expression and co-localization with LTβR” value in data set [4] is reported as “neither ciLT, BAY11-7085, nor NIKi affected”. In data set [5], the “LTβR-induced VCAM-1 expression” value is “suppressed” and the “LTβR-induced CCL2 expression/production” value is given as “suppressed”. Also, in data set [6], the “TRAF2 recruitment to the LTβR complex” value is recorded as “not BAY11-7085 was sufficient to inhibit” and the “TRAF3 recruitment to the LTβR complex” value is given as “not BAY11-7085 was sufficient to inhibit”. Also, in data set [7], the “TNFR1-mediated VCAM-1 expression” value is reported as “significantly inhibited”. Further, the TRAF2 degradation entry in data set [3] (setting [8]) is listed as “not BAY11-7085 also prevented”.

In the case of `O=C1Cc2ccccc2C(=O)N1` [NIKi, 4H-isoquinoline-1,3-dione], the “NIK expression and co-localization with LTβR” value in data set [4] is “neither ciLT, BAY11-7085, nor NIKi affected”. Further, in data set [5], the “LTβR-induced CCL21 transcription and production” value was “inhibited”; the “LTβR-induced VCAM-1 expression” value is given as “did not affect”; the “LTβR-induced CCL2 expression/production” value is on record as “partial inhibitory effect”. In data set [6], the “TRAF2 recruitment to the LTβR complex” value is given as “blocked” and the “TRAF3 recruitment to the LTβR complex” value was “blocked”. Moreover, in data set [3] (setting [8]), the TRAF2 degradation entry is recorded as “inhibited TRAF2 degradation” and the “p100 processing to p52” value is reported as “prevented”.
